From ChEMBL document CHEMBL1201862, “PubChem BioAssay data set” (2004)
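1) Cells in 96-well plates. 2) Compound, 48 h, 5 concentrations. 3) Linear interpolation between surrounding doses. 4) Unreached endpoint = highest concentration. GI50 marks 50% less growth.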 Activity calls are given as the source filed them. No stated cut-off is given here; in the data, active = GI50 up to about 1.1 µM and inactive = higher.

Tests used:
Test in all cases: DTP human tumour cell line panel, 48 h
SW-620 = tested on: SW-620
RXF 393 = tested on: RXF 393
NCI-H460 = tested on: NCI-H460
NCI-H226 = tested on: NCI-H226
IGROV-1 = tested on: IGROV-1
M14 = tested on: M14
SNB-78 = tested on: SNB-78
UACC-62 = tested on: UACC-62
CAKI-1 = tested on: CAKI-1
A549 = tested on: A549
Malme-3M = tested on: Malme-3M
U-251 = tested on: U-251
OVCAR-5 = tested on: OVCAR-5
DLD-1 = tested on: DLD-1
M19-MEL = tested on: M19-MEL
A498 = tested on: A498
LOX IMVI = tested on: LOX IMVI
CCRF-CEM = tested on: CCRF-CEM
TK-10 = tested on: TK-10
RXF 631 = tested on: RXF 631
K562 = tested on: K562
DMS-114 = tested on: DMS-114
HCT-116 = tested on: HCT-116
SNB-75 = tested on: SNB-75
NCI-H23 = tested on: NCI-H23
DMS-273 = tested on: DMS-273
NCI-H522 = tested on: NCI-H522
OVCAR-4 = tested on: OVCAR-4
LXFL 529 = tested on: LXFL 529
HOP-62 = tested on: HOP-62
KM-20L2 = tested on: KM-20L2
SK-MEL-5 = tested on: SK-MEL-5
SK-MEL-2 = tested on: SK-MEL-2
SF-539 = tested on: SF-539
SN12C = tested on: SN12C
OVCAR-3 = tested on: OVCAR-3
XF498 = tested on: XF498
SK-OV-3 = tested on: SK-OV-3
HCC 2998 = tested on: HCC 2998
UACC-257 = tested on: UACC-257
HT-29 = tested on: HT-29
HCT-15 = tested on: HCT-15
HOP-18 = tested on: HOP-18
OVCAR-8 = tested on: OVCAR-8
SF-295 = tested on: SF-295
RPMI-8226 = tested on: RPMI-8226
UO-31 = tested on: UO-31
HL-60 = tested on: HL-60
SNB-19 = tested on: SNB-19
ACHN = tested on: ACHN
MOLT-4 = tested on: MOLT-4
SR = tested on: SR
EKVX = tested on: EKVX
SF-268 = tested on: SF-268
MCF7 = tested on: MCF7
COLO 205 = tested on: COLO 205
SK-MEL-28 = tested on: SK-MEL-28
KM12 = tested on: KM12
MDA-N = tested on: MDA-N
PC-3 = tested on: PC-3
BT-549 = tested on: BT-549
NCI/ADR-RES = tested on: NCI/ADR-RES
MDA-MB-435 = tested on: MDA-MB-435
DU-145 = tested on: DU-145
Hs-578T = tested on: Hs-578T
T47D = tested on: T47D
786-0 = tested on: 786-0
HOP-92 = tested on: HOP-92
MDA-MB-231 = tested on: MDA-MB-231

COc1cc(C2c3cc4c(cc3OC3(O)COC(=O)C23)OCO4)cc(OC)c1OC (centres undefined)
GI50 (SW-620): 35 µM (inactive) | GI50 (RXF 393): 31.3 µM (inactive) | GI50 (NCI-H460): 56.2 µM (inactive) | GI50 (NCI-H226): 32.6 µM (inactive) | GI50 (IGROV-1): 48.9 µM (inactive) | GI50 (M14): 34.7 µM (inactive) | GI50 (SNB-78): > 100 µM (inactive) | GI50 (UACC-62): 44.3 µM (inactive) | GI50 (CAKI-1): 51.3 µM (inactive) | GI50 (A549): 67.5 µM (inactive) | GI50 (Malme-3M): 81.1 µM (inactive) | GI50 (U-251): 38.4 µM (inactive) | GI50 (OVCAR-5): > 100 µM (inactive) | GI50 (DLD-1): 45.9 µM (inactive) | GI50 (M19-MEL): 56.6 µM (inactive) | GI50 (A498): 46.7 µM (inactive) | GI50 (LOX IMVI): 47.5 µM (inactive) | GI50 (CCRF-CEM): 34.7 µM (inactive) | GI50 (TK-10): 51.3 µM (inactive) | GI50 (RXF 631): 49.3 µM (inactive) | GI50 (K562): 42.3 µM (inactive) | GI50 (DMS-114): 34.7 µM (inactive) | GI50 (HCT-116): 51.1 µM (inactive) | GI50 (SNB-75): 25.2 µM (inactive) | GI50 (NCI-H23): 34.8 µM (inactive) | GI50 (DMS-273): 36.5 µM (inactive) | GI50 (NCI-H522): 22.7 µM (inactive) | GI50 (OVCAR-4): > 100 µM (inactive) | GI50 (LXFL 529): 39.8 µM (inactive) | GI50 (HOP-62): 62.7 µM (inactive) | GI50 (KM-20L2): 24.3 µM (inactive) | GI50 (SK-MEL-5): > 10 µM (inactive) | GI50 (SK-MEL-2): > 100 µM (inactive) | GI50 (SF-539): 28.8 µM (inactive) | GI50 (SN12C): 67 µM (inactive) | GI50 (OVCAR-3): 33 µM (inactive) | GI50 (XF498): 35.7 µM (inactive) | GI50 (SK-OV-3): 25.1 µM (inactive) | GI50 (HCC 2998): 70 µM (inactive) | GI50 (UACC-257): 55 µM (inactive) | GI50 (HT-29): 33.2 µM (inactive) | GI50 (HCT-15): 53.2 µM | GI50 (HOP-18): > 100 µM (inactive) | GI50 (OVCAR-8): 54 µM (inactive) | GI50 (SF-295): 26.9 µM (inactive) | GI50 (RPMI-8226): 58.2 µM (inactive) | GI50 (UO-31): 34.7 µM (inactive) | GI50 (HL-60): 30.3 µM (inactive) | GI50 (SNB-19): 53.5 µM (inactive) | GI50 (ACHN): 53 µM (inactive) | GI50 (MOLT-4): 42.6 µM (inactive) | GI50 (SR): 16.7 µM (inactive) | GI50 (EKVX): 78.3 µM (inactive) | GI50 (SF-268): 85.3 µM (inactive)

CC(=O)C(O)N1C(=O)C=CC1=O (centres undefined)
GI50 (SW-620): 1.71 µM (inactive) | GI50 (RXF 393): 2.13 µM (inactive) | GI50 (NCI-H460): 3.58 µM (inactive) | GI50 (NCI-H226): 12.9 µM (inactive) | GI50 (IGROV-1): 21.1 µM (inactive) | GI50 (MCF7): > 25 µM (inactive) | GI50 (COLO 205): 1.56 µM (inactive) | GI50 (M14): 4.23 µM (inactive) | GI50 (SNB-78): 16.9 µM (inactive) | GI50 (UACC-62): 16.8 µM (inactive) | GI50 (CAKI-1): 1.79 µM (inactive) | GI50 (Malme-3M): 2.19 µM (inactive) | GI50 (U-251): 17.4 µM (inactive) | GI50 (OVCAR-5): 17.1 µM (inactive) | GI50 (DLD-1): 1.88 µM (inactive) | GI50 (M19-MEL): 5.89 µM (inactive) | GI50 (A498): 18.1 µM (inactive) | GI50 (LOX IMVI): 4.43 µM (inactive) | GI50 (SK-MEL-28): 10.4 µM (inactive) | GI50 (TK-10): 2.53 µM (inactive) | GI50 (RXF 631): 18.7 µM (inactive) | GI50 (K562): > 25 µM (inactive) | GI50 (DMS-114): 5.86 µM (inactive) | GI50 (HCT-116): 5.61 µM (inactive) | GI50 (KM12): 18.9 µM (inactive) | GI50 (MDA-N): 18.6 µM (inactive) | GI50 (PC-3): 6.11 µM (inactive) | GI50 (SNB-75): 6.24 µM (inactive) | GI50 (NCI-H23): 15.9 µM (inactive) | GI50 (DMS-273): 14.7 µM (inactive) | GI50 (NCI-H522): 1 µM (active) | GI50 (LXFL 529): 1.82 µM (inactive) | GI50 (HOP-62): 19.5 µM (inactive) | GI50 (SK-MEL-5): 17.8 µM (inactive) | GI50 (SK-MEL-2): 17.5 µM (inactive) | GI50 (SF-539): 5.41 µM (inactive) | GI50 (SN12C): 2.83 µM (inactive) | GI50 (BT-549): 8 µM (inactive) | GI50 (OVCAR-3): 17.6 µM (inactive) | GI50 (NCI/ADR-RES): 13.2 µM (inactive) | GI50 (XF498): 17.3 µM (inactive) | GI50 (SK-OV-3): 25.2 µM (inactive) | GI50 (HCC 2998): 21 µM (inactive) | GI50 (MDA-MB-435): 17.7 µM (inactive) | GI50 (UACC-257): 6 µM (inactive) | GI50 (HT-29): 16.4 µM (inactive) | GI50 (HCT-15): 1.84 µM | GI50 (HOP-18): 25.3 µM (inactive) | GI50 (OVCAR-8): 6.22 µM (inactive) | GI50 (SF-295): 18.3 µM (inactive) | GI50 (DU-145): 12.8 µM (inactive) | GI50 (RPMI-8226): 2.26 µM (inactive) | GI50 (Hs-578T): 7.38 µM (inactive) | GI50 (T47D): > 25 µM (inactive) | GI50 (UO-31): 5.86 µM (inactive) | GI50 (HL-60): 1.74 µM (inactive) | GI50 (786-0): 2.33 µM (inactive) | GI50 (SNB-19): 17.6 µM (inactive) | GI50 (HOP-92): 2.07 µM (inactive) | GI50 (ACHN): 2.61 µM (inactive) | GI50 (MOLT-4): 2.05 µM (inactive) | GI50 (MDA-MB-231): 5.05 µM (inactive) | GI50 (SR): 1.99 µM (inactive) | GI50 (EKVX): 6.5 µM (inactive) | GI50 (SF-268): 7.05 µM (inactive)
